Measurements published in patent US6806370B2, “NK-1 receptor active amine oxide prodrugs” (Hoffmann-La Roche Inc., priority 2000, dated 2004).

How the values were obtained:
Format in all cases: in vitro ADME
Conditions in all cases: 1 μg/mL, 37° C.
[1] = Conversion of prodrug to drug in plasma (dog)
Protocol: (§1) The conversion of N-oxide prodrugs to the corresponding parent compounds is due to a reduction mechanism. […] The presence of an oxidant in the work-up solution should help preventing the reduction of the N-oxides.
(§2) Conversion in plasma: 10 μLs of a 100 μg/mL DMSO solution of the pro-drug were added to 1 mL plasma to reach a final concentration of 1 μg/mL. The incubation was performed at 37° C. and 8 aliquots were taken at different time points over 30 min. These aliquots were treated with 3 volumes of cold MeOH containing H2O2 (final concentration 10% v/v) and centrifuged at 3500 g for 20 min at 10° C. The supernatant was directly used to determine the drug levels by LC-MS-MS (HPLC chromatography on reversed phase column X-Terra MS C18 […] 2.1×30 mm Waters at 40° C., using a polarity gradient MeOH/Form.Ac.
(§3) 1% 20/80/MeOH; run time; 3.0 min; inj. Vol.: 10 μL; Flow: […] and MS/MS detection on a PE Sciex API-2000 MS/MS spectrometer; ion source: Turbospray; ionisation mode: ESP+).
(§4) Sample stability (plasma and blood): The final matrix were first prepared (plasma or blood treated with 3 volumes of cold MeOH containing H2O2—10% v/v—and centrifuged at 3500 g for 20 min at 10° C.) and then incubated at 37° C. into two tubes; the pro-drug or the drug were then incubated and finally their concentration determined by LC-MS-MS as described above.

[2] = Conversion of prodrug to drug in plasma (human)
Protocol: as §1, §2, §3, §4

[3] = Conversion of prodrug to drug in plasma (rat)
Protocol: as §1, §2, §3, §4

Cc1ccccc1-c1cc([N+]2([O-])CCOCC2)ncc1N(C)C(=O)C(C)(C)c1cc(C(F)(F)F)cc(C(F)(F)F)c1 [Example 1, 2-(3,5-Bis-trifluoromethyl-phenyl)-N-methyl-N-[6-(4-oxy-morpholin-4-yl)-4-o-tolyl-pyridin-3-yl]-isobutyramide]
t½ conversion prodrug to drug, Dog plasma [1]: 18 h | t½ conversion prodrug to drug, Human plasma [2]: 8 h | t½ conversion prodrug to drug, Rat plasma [3]: 4 h

CN(C(=O)C(C)(C)c1cc(C(F)(F)F)cc(C(F)(F)F)c1)c1cnc([N+]2([O-])CCOCC2)cc1-c1ccccc1Cl [Example 2, 2-(3,5-Bis-trifluoromethyl-phenyl)-N-[4-(2-chloro-phenyl)-6-(4-oxy-morpholin-4-yl)-pyridin-3-yl]-N-methyl-isobutyramide]
t½ conversion prodrug to drug, Dog plasma [1]: 18 h | t½ conversion prodrug to drug, Human plasma [2]: 12 h | t½ conversion prodrug to drug, Rat plasma [3]: 5 h

Cc1ccccc1-c1cc([N+]2([O-])CCOCC2)ncc1C(=O)N(C)Cc1cc(C(F)(F)F)cc(C(F)(F)F)c1.O [Example 16, N-(3,5-Bis-trifluoromethyl-benzyl)-N-methyl-6-(4-oxy-morpholin-4-yl)-4-o-tolyl-nicotinamide monohydrate]
t½ conversion prodrug to drug, Dog plasma [1]: 16 h | t½ conversion prodrug to drug, Human plasma [2]: 6 h | t½ conversion prodrug to drug, Rat plasma [3]: 2 h
